Values quoted from earlier work, collected in patent US8188245B2, “Enduracidin biosynthetic gene cluster from streptomyces fungicidicus” (priority 2006, dated 2012).

Columns and labels:
[1] = tested on: Gram-positive organisms, including MRSA
[2] = tested on: S. aureus (100 strains, including 40% MRSA); settings: 100 strains of S. aureus
[3] = tested on: vancomycin resistant bacteria

Enduracidin
Type of antibacterial effect ([1]; in vitro): bactericidal | Minimal inhibitory concentrations (MICs) ([1]; wide spectrum of primarily Gram-positive organisms, lowest MICs ("as low as")): ≥ 0.05 µg/mL | Antibacterial activity ([1]; wide variety of Gram-positive bacteria, including VRE and MRSA): active | Concentration that no strain was able to survive [2]: 1 µg/mL | Antibacterial activity [3]: active | Toxicity or side effects (MRSA; in vivo): No toxicity or side effects were reported | Efficacy in humans (MRSA; urinary tract and skin infections caused by MRSA): effective
